Data reported in publication PMC4891657, “Orexin 2 Receptor Antagonism is Sufficient to Promote NREM and REM Sleep from Mouse to Man” (Scientific Reports, 2016).
Substitutions are numbered along the chain they refer to.

Tests used:
OX1R = target: T1, OX1R (Canis lupus familiaris, UniProt A0A8I3RSX8); test: Inhibition of orexin-peptide-A-induced calcium mobilization in CHO cells, dog OX1R; format: cell-based
T1 sequence (A0A8I3RSX8 1-427): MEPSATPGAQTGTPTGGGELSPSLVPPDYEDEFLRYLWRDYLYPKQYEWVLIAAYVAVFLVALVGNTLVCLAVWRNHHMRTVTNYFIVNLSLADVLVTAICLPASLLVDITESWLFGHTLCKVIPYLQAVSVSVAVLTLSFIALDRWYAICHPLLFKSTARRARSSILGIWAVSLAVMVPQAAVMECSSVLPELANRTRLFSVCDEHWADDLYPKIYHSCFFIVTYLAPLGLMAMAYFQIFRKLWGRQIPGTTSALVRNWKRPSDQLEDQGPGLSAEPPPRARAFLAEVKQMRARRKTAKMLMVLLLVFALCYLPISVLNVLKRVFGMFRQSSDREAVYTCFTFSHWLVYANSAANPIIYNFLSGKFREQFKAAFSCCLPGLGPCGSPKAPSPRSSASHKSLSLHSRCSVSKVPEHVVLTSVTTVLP
Procedure: (§1) MK-1064 was evaluated for its ability to inhibit orexin-peptide-A-induced calcium mobilization in CHO cell lines separately expressing OX1R and OX2R from mice, rats, rabbits, dogs, rhesus monkeys and humans.
(§2) Binding and functional blockade of OX1R and OX2R with MK-1064 relative to other 2-SORAs and the DORA, MK-6096, were assessed using membranes from Chinese hamster ovary (CHO)-K1 cells (American Type Tissue Collection, Manassas, VA) transfected to express human, mouse, rat, rabbit, dog, or rhesus monkey OX1R or OX2R receptors, as described previously. The kinetics of binding to human OX2R was assessed by radioligand displacement on CHO-K1 cells expressing the receptor. […] The ON rate analysis was performed by presoaking GF/B filters in 0.3% polyethyleneimine (Sigma) using a Skatron 12-well cell harvester and cold buffer at the indicated time points after addition. For OFF rate determination, binding reactions were allowed to proceed to equilibrium and terminated with 1000x [Kd] of unlabeled antagonist and filtered as above at pre-determined time points. Ultima Gold^TM (PerkinElmer 6013327) scintillation cocktail was added to each filter disc and counted on a PerkinElmer TriCarb 2910 scintillation counter. Data were analyzed using GraphPad® Prism v 6.04 (San Diego, CA, USA). The KON rate was determined according to the equation, KON = (KOBS − KOFF)/[ligand].

OX2R [1] = target: T2, OX2R (Mus musculus, UniProt P58308); test: Inhibition of orexin-peptide-A-induced calcium mobilization in CHO cells, mouse OX2R; format: cell-based; conditions: for fold OX2R selectivity (Kb): OX1R Kb / OX2R Kb
T2 construct: expressed in transfected cells; host or cells: CHO-K1
T2 sequence (P58308 1-460): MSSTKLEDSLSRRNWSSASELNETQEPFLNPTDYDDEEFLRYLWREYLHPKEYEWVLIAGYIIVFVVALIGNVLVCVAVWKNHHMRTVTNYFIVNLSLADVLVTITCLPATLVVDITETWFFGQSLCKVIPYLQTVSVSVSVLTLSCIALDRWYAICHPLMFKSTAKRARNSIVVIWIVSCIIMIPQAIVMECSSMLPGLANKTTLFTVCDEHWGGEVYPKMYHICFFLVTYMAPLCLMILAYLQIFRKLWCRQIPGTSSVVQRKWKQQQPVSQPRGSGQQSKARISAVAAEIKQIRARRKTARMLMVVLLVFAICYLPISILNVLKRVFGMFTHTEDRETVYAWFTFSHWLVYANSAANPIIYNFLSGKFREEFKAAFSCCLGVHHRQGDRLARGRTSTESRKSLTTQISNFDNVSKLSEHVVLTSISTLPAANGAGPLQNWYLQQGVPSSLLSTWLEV
Procedure: as §1, §2

OX2R [2] = target: T3, OX2R (Rattus norvegicus, UniProt P56719); test: Inhibition of orexin-peptide-A-induced calcium mobilization in CHO cells, rat OX2R; format: cell-based; conditions: for fold OX2R selectivity (Kb): OX1R Kb / OX2R Kb
T3 construct: expressed in transfected cells; host or cells: CHO-K1
T3 sequence (P56719 1-460): T2 sequence (P58308 1-460) with S11P, C193R, H213R, I240V, Q269P, H387R, V424A
Procedure: as §1, §2

OX2R [3] = target: T4, OX2R (Oryctolagus cuniculus, UniProt G1STQ8); test: Inhibition of orexin-peptide-A-induced calcium mobilization in CHO cells, rabbit OX2R; format: cell-based; conditions: for fold OX2R selectivity (Kb): OX1R Kb / OX2R Kb
T4 sequence (G1STQ8 1-444): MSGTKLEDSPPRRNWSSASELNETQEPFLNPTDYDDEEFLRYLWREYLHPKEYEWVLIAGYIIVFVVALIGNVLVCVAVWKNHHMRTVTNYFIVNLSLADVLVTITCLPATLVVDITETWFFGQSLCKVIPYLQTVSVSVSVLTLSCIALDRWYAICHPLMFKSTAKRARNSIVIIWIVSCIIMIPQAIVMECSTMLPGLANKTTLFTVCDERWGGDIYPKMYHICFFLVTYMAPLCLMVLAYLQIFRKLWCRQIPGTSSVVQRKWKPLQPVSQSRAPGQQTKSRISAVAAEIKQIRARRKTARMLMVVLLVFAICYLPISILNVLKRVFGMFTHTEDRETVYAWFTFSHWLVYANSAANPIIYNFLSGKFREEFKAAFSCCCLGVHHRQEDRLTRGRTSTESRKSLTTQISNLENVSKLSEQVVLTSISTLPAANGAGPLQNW
Procedure: as §1, §2

OX2R [4] = target: T5, OX2R (Macaca mulatta, UniProt F7CZM2); test: Inhibition of orexin-peptide-A-induced calcium mobilization in CHO cells, rhesus OX2R; format: cell-based, rhesus monkey; conditions: for fold OX2R selectivity (Kb): OX1R Kb / OX2R Kb
T5 sequence (F7CZM2 1-444): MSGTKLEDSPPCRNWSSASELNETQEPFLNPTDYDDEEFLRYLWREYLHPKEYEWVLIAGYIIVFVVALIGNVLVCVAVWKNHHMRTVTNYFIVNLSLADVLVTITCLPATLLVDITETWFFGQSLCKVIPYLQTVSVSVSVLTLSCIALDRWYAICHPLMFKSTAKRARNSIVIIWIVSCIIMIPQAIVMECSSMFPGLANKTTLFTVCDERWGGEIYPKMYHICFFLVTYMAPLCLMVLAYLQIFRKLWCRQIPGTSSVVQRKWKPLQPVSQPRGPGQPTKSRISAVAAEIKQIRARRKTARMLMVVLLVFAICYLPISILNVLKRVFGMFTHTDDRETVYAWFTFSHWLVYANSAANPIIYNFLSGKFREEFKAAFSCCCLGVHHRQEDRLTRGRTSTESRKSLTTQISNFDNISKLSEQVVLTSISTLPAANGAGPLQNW
Procedure: as §1, §2

| Structure (SMILES) | Kb (OX1R) | Kb (OX2R [1]) | fold OX2R selectivity (Kb) (OX2R [1]) | Kb (OX2R [2]) | fold OX2R selectivity (Kb) (OX2R [2]) | Kb (OX2R [3]) | fold OX2R selectivity (Kb) (OX2R [3]) | Kb (OX2R [4]) | fold OX2R selectivity (Kb) (OX2R [4]) |
| --- | --- | --- | --- | --- | --- | --- | --- | --- | --- |
| COc1ccc(CNC(=O)c2cc(-c3cncc(C)c3)ncc2-c2ccccc2)nc1OC [2-SORA-7] | > 10000 nM | 14 nM | [568] fold | 18 nM | [3238] fold | 22 nM | [764] fold | 18 nM | [203] fold |
| COc1ccc(CNC(=O)c2cc(-c3cc(Cl)cc(Cl)c3)cnc2-c2cccnc2)cc1OC [2-SORA-18] | 87 nM | 24 nM | [9] fold | 21 nM | [50] fold | 30 nM | [17] fold | 23 nM | [6] fold |
| COc1ccc(CNC(=O)c2cc(-c3cncc(Cl)c3)cnc2-c2ccccn2)nc1OC [MK-1064, 5″-chloro-N-[(5,6-dimethoxypyridin-2-yl)methyl]-2,2′:5′, 3″-terpyridine-3′-carbo xamide] | 3700 nM | 7 nM | [1471] fold | 13 nM | [613] fold | 10 nM | [737] fold | 9 nM | [375] fold |
| COc1ccc(CNC(=O)c2cc(-c3cncc(C)c3)ncc2-c2nccs2)nc1OC [MK-3697] | > 10000 nM | 12 nM | – | 31 nM | – | 27 nM | – | 20 nM | – |
| Cc1ccc(-c2ncccn2)c(C(=O)N2C[C@H](COc3ccc(F)cn3)CC[C@H]2C)c1 [MK-6096] | 10 nM | 10 nM | [0.9] fold | 22 nM | [0.5] fold | 16 nM | [0.8] fold | 14 nM | [1.5] fold |
